Data from ChEMBL document CHEMBL4184213, “Essential structure of orexin 1 receptor antagonist YNT-707, Part II: Drastic effect of the 14-hydroxy group on the orexin 1 receptor antagonistic activity” (Bioorg Med Chem Lett, 2018).

Key:
Orexin receptor type 2 = biological target: T1, Orexin receptor type 2 (Homo sapiens, UniProt O43614); test: Antagonist activity at human OX2R expressed in CHOK1 cells assessed as inhibition of orexin A-induced intracellular Ca2+ release preincubated for 15 mins followed by orexin A addition by Fura 2-AM dye based fluorescence assay; assay type: functional, cell-based
T1 sequence (O43614 whole entry): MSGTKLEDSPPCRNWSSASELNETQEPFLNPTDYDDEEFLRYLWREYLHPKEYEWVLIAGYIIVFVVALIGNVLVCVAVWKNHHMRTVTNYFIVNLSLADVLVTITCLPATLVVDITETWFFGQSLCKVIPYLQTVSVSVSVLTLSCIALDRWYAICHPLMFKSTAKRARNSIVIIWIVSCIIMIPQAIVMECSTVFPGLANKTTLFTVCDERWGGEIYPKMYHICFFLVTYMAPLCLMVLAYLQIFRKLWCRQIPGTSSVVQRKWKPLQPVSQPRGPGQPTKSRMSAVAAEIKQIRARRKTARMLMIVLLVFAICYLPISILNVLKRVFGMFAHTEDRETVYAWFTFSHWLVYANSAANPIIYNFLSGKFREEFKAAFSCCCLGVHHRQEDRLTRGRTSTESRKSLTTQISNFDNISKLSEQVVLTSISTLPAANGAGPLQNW

[1] = biological target: T2, Orexin/Hypocretin receptor type 1 (Homo sapiens, UniProt O43613); test: Antagonist activity at human OX1R expressed in CHOK1 cells assessed as inhibition of orexin A-induced intracellular Ca2+ release preincubated for 15 mins followed by orexin A addition by Fura 2-AM dye based fluorescence assay; assay type: functional, cell-based
T2 sequence (O43613 whole entry): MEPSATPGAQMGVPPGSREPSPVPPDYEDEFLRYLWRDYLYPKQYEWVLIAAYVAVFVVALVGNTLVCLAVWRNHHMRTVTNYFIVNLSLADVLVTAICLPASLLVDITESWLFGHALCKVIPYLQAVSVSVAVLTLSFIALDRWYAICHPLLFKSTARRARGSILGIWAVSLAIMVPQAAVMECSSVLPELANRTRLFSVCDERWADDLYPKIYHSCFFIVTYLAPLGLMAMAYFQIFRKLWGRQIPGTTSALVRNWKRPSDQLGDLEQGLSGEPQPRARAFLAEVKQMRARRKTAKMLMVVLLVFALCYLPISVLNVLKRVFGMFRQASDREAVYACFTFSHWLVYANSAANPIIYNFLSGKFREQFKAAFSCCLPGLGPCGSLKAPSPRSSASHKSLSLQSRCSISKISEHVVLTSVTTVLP

Row | SMILES | Ki (Orexin receptor type 2) [nM] | Ki [1] [nM]
1 | COc1ccc2c3c1O[C@H]1[C@@H](N(C)C(=O)/C=C/c4ccoc4)CC[C@@]4(O)[C@@H](C2)N(S(=O)(=O)c2ccccc2)CC[C@]314 | > 10000 | 
2 | COc1ccc2c3c1O[C@H]1[C@H](N(C)C(=O)/C=C/c4ccoc4)CC[C@@]4(O)[C@@H](C2)N(S(=O)(=O)c2ccccc2)CC[C@]314 | > 10000 | 
3 | COc1ccc2c3c1O[C@H]1[C@@H](N(C)C(=O)/C=C/c4ccoc4)CC=C4[C@@H](C2)N(S(=O)(=O)c2ccccc2)CC[C@]431 | 123 | 17.8
4 | COc1ccc2c3c1O[C@H]1[C@@H](N(C)C(=O)/C=C/c4ccoc4)CC[C@H]4[C@@H](C2)N(S(=O)(=O)c2ccccc2)CC[C@@]341 | > 10000 | 187
5 | COc1ccc2c3c1O[C@H]1[C@H](N(C)C(=O)/C=C/c4ccoc4)CC=C4[C@@H](C2)N(S(=O)(=O)c2ccccc2)CC[C@]431 | > 10000 | 2.06
6 | COc1ccc2c3c1O[C@H]1[C@H](N(C)C(=O)/C=C/c4ccoc4)CC[C@H]4[C@@H](C2)N(S(=O)(=O)c2ccccc2)CC[C@@]341 | > 10000 | 1.97
